Each structure is given as a SMILES string.

Consider 6 molecules from patent EP2140864A2 (H. Lundbeck A/S, priority 2001, dated 2002).

The first experiment has as its target T1, human 5HT1F (Homo sapiens, UniProt P30939).
T1 construct: expressed in transfected cells
T1 sequence (P30939 1-366): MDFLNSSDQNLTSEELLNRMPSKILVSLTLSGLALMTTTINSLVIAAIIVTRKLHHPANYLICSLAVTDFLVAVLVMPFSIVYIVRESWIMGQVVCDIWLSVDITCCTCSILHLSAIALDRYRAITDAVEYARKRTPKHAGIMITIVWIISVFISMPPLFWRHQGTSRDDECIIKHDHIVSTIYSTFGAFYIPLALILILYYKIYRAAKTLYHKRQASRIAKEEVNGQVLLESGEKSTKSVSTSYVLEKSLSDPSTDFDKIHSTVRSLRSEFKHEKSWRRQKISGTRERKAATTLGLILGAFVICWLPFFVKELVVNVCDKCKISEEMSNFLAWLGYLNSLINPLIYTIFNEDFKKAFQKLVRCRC
The experiment is described as follows: Radioligand binding, 5HT1F receptor ([3H]-serotonin). The conditions noted are these: Table 7; read-out: h5HT1F Ki. As for the experimental part: Human 5HT1B, 5HT1D, 5HT1E, 5HT1F, and 5HT7 Receptors: The cell lysates of LM(tk-) clonal cell line stably transfected with the genes encoding each of these 5HT receptor-subtypes were prepared as described above. Cell membranes were suspended in 50mM Tris-HCl buffer (pH 7.4 at 37°C) containing 10 mM MgCl2, 0.2 mM EDTA, 10 µM pargyline, and 0.1% ascorbate. […] Nonspecific binding was determined in the presence of 10 µM serotonin. The bound radioligand was separated by filtration through GF/B filters using a cell harvester.
(§1) Binding data were analyzed using nonlinear regression and statistical techniques available in the GraphPAD Prism package (San Diego, CA). Enzymatic assay data were derived from a standard curve of reference compound data.
With `CN(C)c1cc(Nc2ccc(Cl)c(Cl)c2)nc(Nc2ccccc2)n1` [Example 60], the Ki is 2.12 µM.

For the molecule `COc1cccc(Nc2cc(N3CCCCC3)nc(N(C)CCc3c[nH]c4ccccc34)n2)c1` [Example 17], the inhibition constant Ki stood at 10.3 µM.

Consider `O=C1C(=Nc2ccc(C(F)(F)F)cc2)c2ccccc2N1c1ccccc1` [Example 95, 1-PHENYL-3-[[4-(TRIFLUOROMETHYL)PHENYL]IMINO]-1,3-DIHYDRO-2H-INDOL-2-ONE], for which the Ki is 4.45 µM.

As for `O=C1C(=Nc2ccc(Br)cc2)c2ccccc2N1c1ccccc1` [Example 98, 3-[(4-BROMOPHENYL)IMINO]-1-PHENYL-1,3-DIHYDRO-2H-INDOL-2-ONE], the inhibition constant Ki was found to be 3.36 µM.

`Cc1ccc(Nc2cc(N3CCCCC3)nc(N3CCN(c4ncccc4C(F)(F)F)CC3)n2)cc1` [Example 34]: the Ki is 4.8 µM.

On to `O=C1C(=Nc2ccc(Cl)cc2)c2ccccc2N1c1ccccc1` [Example 97, 3-[(4-CHLOROPHENYL)IMINO]-1-PHENYL-1,3-DIHYDRO-2H-INDOL-2-ONE], for which the inhibition constant (Ki) turned out to be 4.16 µM.

The experiment is the same for the next values; noted with them: Table 8; Ki h5HT1F divided by Ki hGAL3.
For the molecule `CN(C)c1cc(Nc2ccc(Cl)c(Cl)c2)nc(Nc2ccccc2)n1` [Example 60], the “selectivity ratio h5HT1F” value is 25.

Turning to `COc1cccc(Nc2cc(N3CCCCC3)nc(N(C)CCc3c[nH]c4ccccc34)n2)c1` [Example 17], the “selectivity ratio h5HT1F” value is recorded as over 100.

Consider `O=C1C(=Nc2ccc(C(F)(F)F)cc2)c2ccccc2N1c1ccccc1` [Example 95, 1-PHENYL-3-[[4-(TRIFLUOROMETHYL)PHENYL]IMINO]-1,3-DIHYDRO-2H-INDOL-2-ONE], for which the “selectivity ratio h5HT1F” value was over 100.

Take `O=C1C(=Nc2ccc(Br)cc2)c2ccccc2N1c1ccccc1` [Example 98, 3-[(4-BROMOPHENYL)IMINO]-1-PHENYL-1,3-DIHYDRO-2H-INDOL-2-ONE]: the “selectivity ratio h5HT1F” value is over 30.

As to `Cc1ccc(Nc2cc(N3CCCCC3)nc(N3CCN(c4ncccc4C(F)(F)F)CC3)n2)cc1` [Example 34], the “selectivity ratio h5HT1F” value is given as over 100.

Turning to `O=C1C(=Nc2ccc(Cl)cc2)c2ccccc2N1c1ccccc1` [Example 97, 3-[(4-CHLOROPHENYL)IMINO]-1-PHENYL-1,3-DIHYDRO-2H-INDOL-2-ONE], the “selectivity ratio h5HT1F” value is over 30.

Another experiment addresses T2, human α1D adrenergic receptor (Homo sapiens, UniProt P25100).
T2 construct: expressed in transfected cells
T2 sequence (P25100 1-572): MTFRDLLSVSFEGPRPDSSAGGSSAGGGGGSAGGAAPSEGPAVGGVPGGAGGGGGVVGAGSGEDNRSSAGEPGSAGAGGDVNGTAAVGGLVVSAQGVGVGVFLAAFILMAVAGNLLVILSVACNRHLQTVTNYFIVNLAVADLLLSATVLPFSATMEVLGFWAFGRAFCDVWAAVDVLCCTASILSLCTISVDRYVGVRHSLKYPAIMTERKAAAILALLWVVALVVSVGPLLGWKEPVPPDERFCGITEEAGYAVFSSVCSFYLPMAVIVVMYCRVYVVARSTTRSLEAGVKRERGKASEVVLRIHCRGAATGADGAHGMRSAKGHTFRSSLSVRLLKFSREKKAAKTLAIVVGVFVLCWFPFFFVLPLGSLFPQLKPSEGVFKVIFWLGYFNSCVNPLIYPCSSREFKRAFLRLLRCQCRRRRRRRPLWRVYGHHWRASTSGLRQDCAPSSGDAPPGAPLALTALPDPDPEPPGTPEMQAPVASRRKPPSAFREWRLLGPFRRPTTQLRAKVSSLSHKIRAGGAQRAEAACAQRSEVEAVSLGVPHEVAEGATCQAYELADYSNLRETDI
Put plainly: Radioligand binding, α1D adrenergic receptor. The settings on record: Table 9; read-out: hα1D Ki.
Text: (§2) Other receptors: Cell membranes expressing human dopamine D1, D2, D4 and rat D3 receptors were purchased through BioSignal, Inc. (Montreal, Canada). Binding assays using the histamine H1 receptor; dopamine receptors; and α1A, α1E, and α2 adrenergic receptors may be carried out according to the procedures described in U.S. Patent No. 5,780,485, the disclosure of which is hereby incorporated by reference in its entirety into this application. Binding assays using the dopamine D5 receptor may be carried out according to the procedures described in U.S. Patent No. 5,882,855, the disclosure of which is hereby incorporated by reference in its entirety into this application. Binding assays for the human α1D adrenergic receptor may be carried out according to the procedures described in U.S. Patent No. 6,156,518, the disclosure of which is hereby incorporated by reference in its entirety into this application.
as §1
On to `CN(C)c1cc(Nc2ccc(Cl)c(Cl)c2)nc(Nc2ccccc2)n1` [Example 60], for which the Ki was 4.23 µM.

Regarding `COc1cccc(Nc2cc(N3CCCCC3)nc(N(C)CCc3c[nH]c4ccccc34)n2)c1` [Example 17], the Ki came to 0.221 µM.

As to `O=C1C(=Nc2ccc(C(F)(F)F)cc2)c2ccccc2N1c1ccccc1` [Example 95, 1-PHENYL-3-[[4-(TRIFLUOROMETHYL)PHENYL]IMINO]-1,3-DIHYDRO-2H-INDOL-2-ONE], the Ki worked out at 3.47 µM.

With `O=C1C(=Nc2ccc(Br)cc2)c2ccccc2N1c1ccccc1` [Example 98, 3-[(4-BROMOPHENYL)IMINO]-1-PHENYL-1,3-DIHYDRO-2H-INDOL-2-ONE], the Ki is 1.89 µM.

As to `Cc1ccc(Nc2cc(N3CCCCC3)nc(N3CCN(c4ncccc4C(F)(F)F)CC3)n2)cc1` [Example 34], the inhibition constant (Ki) was determined as 1.24 µM.

As to `O=C1C(=Nc2ccc(Cl)cc2)c2ccccc2N1c1ccccc1` [Example 97, 3-[(4-CHLOROPHENYL)IMINO]-1-PHENYL-1,3-DIHYDRO-2H-INDOL-2-ONE], the inhibition constant (Ki) was determined as 6.45 µM.

The same experiment, now with this note: Table 10; Ki hα1D divided by Ki hGAL3.
`CN(C)c1cc(Nc2ccc(Cl)c(Cl)c2)nc(Nc2ccccc2)n1` [Example 60]: the “selectivity ratio hα1D” value is reported as over 30.

Consider `COc1cccc(Nc2cc(N3CCCCC3)nc(N(C)CCc3c[nH]c4ccccc34)n2)c1` [Example 17], for which the “selectivity ratio hα1D” value stood at 3.

In the case of `O=C1C(=Nc2ccc(C(F)(F)F)cc2)c2ccccc2N1c1ccccc1` [Example 95, 1-PHENYL-3-[[4-(TRIFLUOROMETHYL)PHENYL]IMINO]-1,3-DIHYDRO-2H-INDOL-2-ONE], the “selectivity ratio hα1D” value was over 100.

As for `O=C1C(=Nc2ccc(Br)cc2)c2ccccc2N1c1ccccc1` [Example 98, 3-[(4-BROMOPHENYL)IMINO]-1-PHENYL-1,3-DIHYDRO-2H-INDOL-2-ONE], the “selectivity ratio hα1D” value is given as over 30.

Take `Cc1ccc(Nc2cc(N3CCCCC3)nc(N3CCN(c4ncccc4C(F)(F)F)CC3)n2)cc1` [Example 34]: the “selectivity ratio hα1D” value is listed as over 30.

With `O=C1C(=Nc2ccc(Cl)cc2)c2ccccc2N1c1ccccc1` [Example 97, 3-[(4-CHLOROPHENYL)IMINO]-1-PHENYL-1,3-DIHYDRO-2H-INDOL-2-ONE], the “selectivity ratio hα1D” value was over 100.

In a further experiment the target is T3, human α2C adrenoceptor (Homo sapiens, UniProt P18825).
T3 construct: expressed in transfected cells
T3 sequence (P18825 1-462): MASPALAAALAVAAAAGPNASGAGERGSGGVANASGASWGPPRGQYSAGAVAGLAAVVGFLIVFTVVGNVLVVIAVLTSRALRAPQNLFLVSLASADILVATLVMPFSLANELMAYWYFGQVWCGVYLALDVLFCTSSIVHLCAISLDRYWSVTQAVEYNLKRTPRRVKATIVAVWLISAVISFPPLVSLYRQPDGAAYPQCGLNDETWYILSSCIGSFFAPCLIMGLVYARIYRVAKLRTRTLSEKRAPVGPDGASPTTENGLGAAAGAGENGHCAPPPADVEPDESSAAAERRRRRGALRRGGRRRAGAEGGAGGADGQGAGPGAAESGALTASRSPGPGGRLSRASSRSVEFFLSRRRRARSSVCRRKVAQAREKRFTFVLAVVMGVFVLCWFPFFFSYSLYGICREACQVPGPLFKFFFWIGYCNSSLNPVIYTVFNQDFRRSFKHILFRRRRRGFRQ
The experiment is described as follows: Radioligand binding, α2C adrenergic receptor. The settings on record: Table 9; read-out: hα2C Ki.
Text: as §2, §1
`CN(C)c1cc(Nc2ccc(Cl)c(Cl)c2)nc(Nc2ccccc2)n1` [Example 60]: the Ki turned out to be 7.2 µM.

As to `COc1cccc(Nc2cc(N3CCCCC3)nc(N(C)CCc3c[nH]c4ccccc34)n2)c1` [Example 17], the inhibition constant (Ki) worked out at 10.3 µM.

Regarding `O=C1C(=Nc2ccc(C(F)(F)F)cc2)c2ccccc2N1c1ccccc1` [Example 95, 1-PHENYL-3-[[4-(TRIFLUOROMETHYL)PHENYL]IMINO]-1,3-DIHYDRO-2H-INDOL-2-ONE], the inhibitory constant (Ki) is 48.6 µM.

Consider `O=C1C(=Nc2ccc(Br)cc2)c2ccccc2N1c1ccccc1` [Example 98, 3-[(4-BROMOPHENYL)IMINO]-1-PHENYL-1,3-DIHYDRO-2H-INDOL-2-ONE], for which the Ki is over 50 µM.

`Cc1ccc(Nc2cc(N3CCCCC3)nc(N3CCN(c4ncccc4C(F)(F)F)CC3)n2)cc1` [Example 34]: the inhibition constant Ki turned out to be 8.83 µM.

On to `O=C1C(=Nc2ccc(Cl)cc2)c2ccccc2N1c1ccccc1` [Example 97, 3-[(4-CHLOROPHENYL)IMINO]-1-PHENYL-1,3-DIHYDRO-2H-INDOL-2-ONE], for which the Ki is over 50 µM.

The same experiment, now with this note: Table 10; Ki hα2C divided by Ki hGAL3.
On to `CN(C)c1cc(Nc2ccc(Cl)c(Cl)c2)nc(Nc2ccccc2)n1` [Example 60], for which the “selectivity ratio hα2C” value was over 30.

Consider `COc1cccc(Nc2cc(N3CCCCC3)nc(N(C)CCc3c[nH]c4ccccc34)n2)c1` [Example 17], for which the “selectivity ratio hα2C” value was over 100.

For `O=C1C(=Nc2ccc(C(F)(F)F)cc2)c2ccccc2N1c1ccccc1` [Example 95, 1-PHENYL-3-[[4-(TRIFLUOROMETHYL)PHENYL]IMINO]-1,3-DIHYDRO-2H-INDOL-2-ONE], the “selectivity ratio hα2C” value was over 100.

In the case of `O=C1C(=Nc2ccc(Br)cc2)c2ccccc2N1c1ccccc1` [Example 98, 3-[(4-BROMOPHENYL)IMINO]-1-PHENYL-1,3-DIHYDRO-2H-INDOL-2-ONE], the “selectivity ratio hα2C” value is listed as over 100.

For the molecule `Cc1ccc(Nc2cc(N3CCCCC3)nc(N3CCN(c4ncccc4C(F)(F)F)CC3)n2)cc1` [Example 34], the “selectivity ratio hα2C” value is listed as over 100.

Turning to `O=C1C(=Nc2ccc(Cl)cc2)c2ccccc2N1c1ccccc1` [Example 97, 3-[(4-CHLOROPHENYL)IMINO]-1-PHENYL-1,3-DIHYDRO-2H-INDOL-2-ONE], the “selectivity ratio hα2C” value is reported as over 100.

Broadly, the Ki is a measure of affinity in units of concentration, obtained from inhibition or displacement.
